This is an account of results in PubChem BioAssay (NCI).

Each structure is given as a SMILES string. Several values for one entry are separate records, joined by “and”; a condition that tells them apart may be missing. Identical values can stand only once.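 Method: 48-hour compound exposure of cells in 96-well plates, five concentrations, linear interpolation of endpoints. GI50 is the concentration that inhibits growth by half. TGI: concentration producing complete growth inhibition.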

Test systems include LOX IMVI melanoma; SK-MEL-5 melanoma; RPMI-8226 leukemia; U251 CNS; UACC-62 melanoma; SR leukemia; CAKI-1 renal; NCI-H522 lung; MDA-MB-435; HCC-2998 colon.
What all share (test): NCI-60 cell line screen, 48 h

Turning to `CCn1c(-c2nonc2N)nc2ccccc21`, the GI50 in the experiment on LOX IMVI melanoma, with SK-MEL-5 melanoma, in the experiment on RPMI-8226 leukemia, in the experiment on U251 CNS, in the experiment with UACC-62 melanoma and with SR leukemia was above 25000 nM each time. Besides, the GI50 in the experiment on CAKI-1 renal, with NCI-H522 lung, in the experiment on MDA-MB-435 and with HCC-2998 colon was above 25000 nM in each case. The TGI in the experiment on LOX IMVI melanoma, with SK-MEL-5 melanoma, in the experiment with RPMI-8226 leukemia, in the experiment on U251 CNS, in the experiment with UACC-62 melanoma and with SR leukemia was above 25000 nM in each case. For the same compound, the TGI with CAKI-1 renal, in the experiment with NCI-H522 lung, in the experiment with MDA-MB-435 and in the experiment on HCC-2998 colon was above 25000 nM in each case.
For `NNc1c(C(N)=O)c2c(N)ncnc2n1C1OC(CO)C(O)C1O` (centres undefined), the GI50 in the experiment on LOX IMVI melanoma was 34.9 nM; in the experiment on SK-MEL-5 melanoma it was 60.1 nM and 82.8 nM; in the experiment on RPMI-8226 leukemia it was 40.4 nM and 36.4 nM; with U251 CNS, 23 nM and 63.5 nM; in the experiment with UACC-62 melanoma, 26.9 nM and 40.9 nM; in the experiment on SR leukemia it was 25.2 nM. In addition, the GI50 in the experiment on CAKI-1 renal is 17.1 nM and < 16.7 nM; in the experiment on NCI-H522 lung, 32.8 nM and 152 nM; in the experiment on MDA-MB-435, 34.6 nM and 48.3 nM; in the experiment on HCC-2998 colon it was < 17.6 nM and 16.5 nM. Further, the TGI was 130 nM and 1200 nM with LOX IMVI melanoma; 194 nM and 275 nM with SK-MEL-5 melanoma; 221 nM and 143 nM in the experiment on RPMI-8226 leukemia; 12900 nM and > 100000 nM with U251 CNS; 124 nM and 168 nM with UACC-62 melanoma; 19.4 nM and 63.9 nM in the experiment with SR leukemia. Further, the TGI with CAKI-1 renal is 826 nM and 909 nM; with MDA-MB-435, 148 nM and 265 nM; with HCC-2998 colon, 46.2 nM and 69.1 nM.
Take `CC(C)(C)N/N=C(/Cc1nc2c3c(ccc2[nH]c1=O)C(=O)c1ccccc1C3=O)C(=O)NC1=C(Cl)C(=O)c2ccccc2C1=O`: the TGI with LOX IMVI melanoma was above 100000 nM; with SK-MEL-5 melanoma it was 27000 nM; in the experiment on RPMI-8226 leukemia it was above 100000 nM; in the experiment on U251 CNS it was above 100000 nM; in the experiment on UACC-62 melanoma, above 100000 nM; with SR leukemia it was above 100000 nM. The TGI in the experiment on CAKI-1 renal, in the experiment with NCI-H522 lung, in the experiment on MDA-MB-435 and with HCC-2998 colon was above 100000 nM throughout.
For the compound `CNC(=O)CCN1CCN(CC/C=C2\c3ccccc3Sc3ccc(Cl)cc32)CC1`, the GI50 in the experiment with LOX IMVI melanoma is 5150 nM; in the experiment on SK-MEL-5 melanoma, 2410 nM; in the experiment on RPMI-8226 leukemia, 3650 nM; in the experiment on U251 CNS, 7220 nM; with UACC-62 melanoma it was 1920 nM; in the experiment with SR leukemia it was 4190 nM. Moreover, the GI50 was 3420 nM with CAKI-1 renal, 20000 nM with NCI-H522 lung, 1960 nM in the experiment with MDA-MB-435 and 7940 nM with HCC-2998 colon. Besides, the TGI amounted to 18900 nM with LOX IMVI melanoma; 6180 nM in the experiment with SK-MEL-5 melanoma; 18200 nM with RPMI-8226 leukemia; 20700 nM in the experiment on U251 CNS; 3620 nM with UACC-62 melanoma; 18100 nM with SR leukemia. For the same compound, the TGI was 19700 nM in the experiment with CAKI-1 renal, 43800 nM with NCI-H522 lung, 4910 nM in the experiment with MDA-MB-435 and 24200 nM in the experiment with HCC-2998 colon.
Turning to `Cc1cc(N2CCC(N3CCCC3)CC2)nc(/N=C(\N)Nc2ccc(Cl)c(Cl)c2)n1`, the GI50 with LOX IMVI melanoma is 1610 nM; in the experiment on SK-MEL-5 melanoma, 1650 nM; in the experiment on RPMI-8226 leukemia, 264 nM; with U251 CNS, 1790 nM; with UACC-62 melanoma, 1900 nM; in the experiment on SR leukemia it was 255 nM. For the same compound, the GI50 was 1290 nM with CAKI-1 renal, 1520 nM in the experiment on NCI-H522 lung, 1740 nM with MDA-MB-435 and 1540 nM in the experiment with HCC-2998 colon. Also, the TGI with LOX IMVI melanoma was 3350 nM; with SK-MEL-5 melanoma it was 3020 nM; with RPMI-8226 leukemia it was 926 nM; with U251 CNS it was 3350 nM; in the experiment with UACC-62 melanoma it was 3600 nM; in the experiment with SR leukemia, above 100000 nM. Also, the TGI in the experiment on CAKI-1 renal was found to be 2680 nM; in the experiment with NCI-H522 lung, 3320 nM; with MDA-MB-435, 3300 nM; in the experiment with HCC-2998 colon, 3170 nM.
Turning to `COc1cccc(/C=C2\N=C(c3ccccc3)OC2=O)c1`, the TGI was 66800 nM in the experiment with LOX IMVI melanoma; above 100000 nM with SK-MEL-5 melanoma; 94100 nM with RPMI-8226 leukemia; above 100000 nM in the experiment on U251 CNS; above 100000 nM in the experiment on UACC-62 melanoma; 65200 nM in the experiment with SR leukemia. The TGI in the experiment with CAKI-1 renal is above 100000 nM; with NCI-H522 lung it was 42500 nM; in the experiment on MDA-MB-435, above 100000 nM; with HCC-2998 colon it was above 100000 nM.
As to `[O]=[Sn]([CH]1CCCCC1)[CH]1CCCCC1`, the GI50 with LOX IMVI melanoma is 123 nM; with SK-MEL-5 melanoma it was 259 nM; with RPMI-8226 leukemia, 188 nM; with U251 CNS, 51.4 nM; with UACC-62 melanoma it was 208 nM; in the experiment with SR leukemia it was 312 nM. Also, the GI50 was 145 nM in the experiment with CAKI-1 renal, 71.1 nM in the experiment on NCI-H522 lung, 218 nM with MDA-MB-435 and 245 nM in the experiment with HCC-2998 colon. Further, the TGI was 297 nM in the experiment on LOX IMVI melanoma; 1140 nM in the experiment with SK-MEL-5 melanoma; 718 nM in the experiment with RPMI-8226 leukemia; 200 nM in the experiment with U251 CNS; 743 nM with UACC-62 melanoma; 1710 nM in the experiment on SR leukemia. Also, the TGI in the experiment on CAKI-1 renal was determined as 341 nM; in the experiment on NCI-H522 lung it was 217 nM; in the experiment with MDA-MB-435 it was 833 nM; with HCC-2998 colon, 693 nM.
As for `CC[C@H](C)[C@H](NC(=O)C12C3C4C1C1C2C3C41NC)C(=O)N(C)[C@H](C[C@@H](OC(C)=O)c1nc(C(=O)N[C@@H](Cc2ccccc2)C[C@H](C)C(=O)OC)cs1)C(C)C` (some centres undefined), the GI50 was 493 nM in the experiment with LOX IMVI melanoma; 159 nM in the experiment on SK-MEL-5 melanoma; 143 nM in the experiment with RPMI-8226 leukemia; 594 nM in the experiment with U251 CNS; 118 nM with UACC-62 melanoma; 46.9 nM in the experiment on SR leukemia. Besides, the GI50 is 5570 nM in the experiment on CAKI-1 renal, 56.1 nM in the experiment on NCI-H522 lung, 48.9 nM with MDA-MB-435 and 369 nM in the experiment with HCC-2998 colon. Besides, the TGI in the experiment with LOX IMVI melanoma is above 14300 nM; with SK-MEL-5 melanoma, 2850 nM; in the experiment with RPMI-8226 leukemia, above 6290 nM; in the experiment on U251 CNS, above 14300 nM; with UACC-62 melanoma, above 14300 nM; with SR leukemia, above 14300 nM. Also, the TGI is above 14300 nM in the experiment on CAKI-1 renal, 967 nM in the experiment with NCI-H522 lung, 377 nM in the experiment with MDA-MB-435 and above 14300 nM with HCC-2998 colon.
